Data from patent US5252592A, “Tetrazoleacetic acid derivatives having aldose reductase inhibitory activity” (Wakamoto Pharmaceutical Co., Ltd., priority 1991, dated 1993).

Target: T1, aldose reductase (Rattus norvegicus, UniProt P07943)
T1 construct: their crystalline lenses were immediately removed and stored at -80° C; The lenses were homogenized; from tissue; host or cells: crystalline lens of six-week-old male SD rats (30,000 rpm supernatant, dialysed)
Experiment: Test for Examining Aldose Reductase Inhibitory Effect
Type: biochemical, male SD rats (crystalline lenses)
Conditions: rat lens aldose reductase; DL-glyceraldehyde 10 mM, NADPH 0.15 mM, pH 5.2, 30° C., 5 minutes; least-square regression of log dose-response curve
Procedure: Six-weeks-old male SD rats were anesthetized with ether and killed. Then their crystalline lenses were immediately removed and stored at -80° C. […] The resulting supernatant was dialyzed overnight against 0.05M sodium chloride solution to obtain an aldose reductase solution. All operations were conducted at 4° C. and the enzyme solution was stored at -80° C.
More specifically, 0.1 ml of DL-glyceraldehyde (final concentration: 10 mM) was added to 0.9 ml of 100 mM sodium potassium phosphate buffer (pH 5.2) which contained lithium sulfate (final concentration: 400 mM), reduced nicotinamide adenine dinucleotide phosphate (final concentration: 0.15 mM), the enzyme solution, and the compound to be evaluated (final concentration: 10^-6 M, 10^-7 M or 10^-8 M), and then the reaction was conducted at 30° C. for 5 minutes. During the reaction, the change in the absorbance at 340 nm with time was monitored.
The maximum reducing rate of the absorbance […] during the reaction was determined. By subtracting, from this value, the maximum reducing rate (U0) at 340 nm of the reaction solution before the addition of the substrate (DL-glyceraldehyde), the reaction rate (V=U-U0) was calculated as a true reaction rate in the presence of the compound to be tested.
The same procedure was repeated except for the absence of the compound to be tested. A true reaction rate (V0) in case the enzyme was not inhibited was calculated (V0 =U'-U0 '). The aldose reductase inhibitory activity of the test compounds was determined according to the following formula:
Rate of Inhibition (%)=(V0 -V)/V0 ×100
The concentration of inhibitor giving 50% inhibitation of enyzme activity […] was estimated from the least-square regression line of the log dose-response curve.

Row | IC50 | Compound
1 | 19 nM | COc1ccc2cc(-c3nnnn3CC(=O)O)ccc2c1 [Example 3 - 3]
2 | 130 nM | COc1ccc2c(-c3nnnn3CC(=O)O)cccc2c1C(F)(F)F [Example 3 - 4, [5-[1-(6-methoxy-5-trifluoromethyl)naphthyl]tetrazol-1-yl]acetic acid]
3 | 50 nM | O=C(O)Cn1nnnc1-c1ccc2ccccc2c1 [Example 3 - 1]
4 | 25 nM | O=C(O)Cn1nnnc1-c1cccc2ccccc12 [Example 3 - 2, [5-(1-naphthyl)tetrazol-1-yl]acetic acid]
